According to ChEMBL document CHEMBL3507680, “University of Dundee, Gates Library screen for HepG2 cell viability”:

Experiment: Human HepG2 cell viability assay in 384 well format
Assay type: toxicity, cell-based
Parameters: dose 125 nL, time 70.5 hour; concentration not given beside the values
Settings: HepG2 cells, read-out: Inhibition

Structure (SMILES) | cytotoxicity at 70.5 h [%]
CCC1CN(C(=O)c2cnc(-c3cnn(C)c3)s2)CCO1 (configuration not stated) | -6.34
CCNC(=O)N(C)C(c1cccnc1)C(C)C (configuration not stated) | -9.88
O=C(Cc1ccc(S(=O)(=O)C(F)F)cc1)N1CCC1 | -10.6
Cc1cnn(CC(=O)NC2CCCc3cc(OC(F)F)ccc32)c1 (configuration not stated) | -6.6
O=C(CS(=O)(=O)C1CCCC1)NC1CCCc2cc(OC(F)F)ccc21 (configuration not stated) | -9.47
Cc1ccsc1C(=O)Nc1cc(Br)c(=O)n(C)c1 | -8.88
Cc1csc(C(C#N)C(=O)NCc2cccnc2)n1 (configuration not stated) | -5.59
Cc1ccc(OCC(C)NS(=O)(=O)N(C)C)cc1 (configuration not stated) | -5.84
c1ccc(Cn2ccnc2CNC2CCCOc3ccccc32)cc1 (configuration not stated) | -6.62
COCCCN(C)c1ncccc1I | 8.68
Cc1nc(CN(C)C2CCN(Cc3nc4c(F)cccc4[nH]3)C2)no1 (configuration not stated) | 4.6
COCC(O)CN(C)c1ccnc2cc(F)ccc12 (configuration not stated) | 13.1
CSCc1cc(F)ccc1CNCc1ccncc1 | 4.11
O=C(Nc1nccs1)C1CCN(Cc2cccc3c2OCCO3)CC1 | 6.98
Cc1csc(NC(=O)C2CCN(Cc3cccc4c3OCCO4)CC2)n1 | 8.1
CCN1CCC(CNC(=O)c2cc(Cl)c[nH]2)CC1 | -8.09
NC(=O)[C@@H]1Cc2ccccc2CN1S(=O)(=O)N1CCCCC1 | -1.22
CC(=O)N(C)c1nc(Cn2nnnc2C(C)(C)C)cs1 | -4.99
Cn1cnnc1C1CCN(C(=O)c2cc(-c3ccccc3)on2)CC1 | 25.4
O=C(NCC1(Sc2ccccc2)CC1)c1ccc(=O)[nH]n1 | -6.34
CCC1CCCCCN1C(=O)c1cc(C#N)c(SC)[nH]c1=O (configuration not stated) | 24.7
Cc1noc(C)c1C(=O)N1CCCN(C)c2ccc(Cl)cc21 | -3.33
Cc1noc(C)c1C(C)C(=O)N1CCCN(C)c2ccc(Cl)cc21 (configuration not stated) | -6.12
CC(C)(C)OC(=O)NC(C)(C(N)=O)c1cccc(Cl)c1 (configuration not stated) | 25.4

Structure (SMILES) | cytotoxicity at 70.5 h [%]
CC1CCN(C(=O)NCC(=O)N(C)CC(F)(F)F)C1 (configuration not stated) | -4.12
CC(C)C1CCN(C(=O)NCC(=O)N(C)CC(F)(F)F)CC1 | 20.8
COCCC(=O)NC(C)(C(N)=O)c1cccc(Cl)c1 (configuration not stated) | -3.41
CSCc1cc(F)ccc1CNCc1ncc[nH]1 | -8.53
CSCc1cc(F)ccc1CNCc1cccc(O)c1 | -5.38
CSc1[nH]c(=O)c(C(=O)N2CCCC2C2CCCC2)cc1C#N (configuration not stated) | -5.31
CN(CC(F)(F)F)C(=O)CNC(=O)N1CCCC(N(C)C)C1 (configuration not stated) | -8.19
CC1COCCN1Cc1nc(Cc2ccccc2)no1 (configuration not stated) | -8.66
O=C(NC1CCN(C(=O)C2CCCCC2)C1)c1ccncc1Cl (configuration not stated) | -9.33
Cn1cnnc1C1CCCN(C(=O)c2cc(C3CC3)on2)C1 (configuration not stated) | -10.9
FC(F)(F)c1cccc(C2(CNCc3ccncc3)CCOCC2)c1 | 6.55
CNS(=O)(=O)c1cccc(C(C)NCc2nccn2C(C)C)c1 (configuration not stated) | 10.8
CC(C)OCCCN1CCCC(c2nc3ccccc3n2C(C)C)C1 (configuration not stated) | 13.2
Cc1cc(C(N)=O)ccc1NC(=O)c1nc(N2CCCC2)ncc1Cl | -4.63
NCC1(c2cccc(C(F)(F)F)c2)CCOCC1 | -3.44
NS(=O)(=O)CCNC(=O)c1nnn(-c2ccc(F)cc2)c1C1CC1 | -2.85
CN1CCCC1CNC(=O)c1nnn(-c2ccc(F)cc2)c1C1CC1 (configuration not stated) | 22.3
NS(=O)(=O)CCNC(=O)c1nnn(-c2ccccc2)c1C1CC1 | -2.47
COc1ccc(C2CCCN2C(=O)c2cc3c([nH]c2=O)CCC3)cc1 (configuration not stated) | -2.02
COc1cccc(C2CCCN2C(=O)c2cc3c([nH]c2=O)CCC3)c1 (configuration not stated) | -2.15
CNC(=O)c1cnc(/C=C/c2cc(OC)c(OC)c(OC)c2)s1 | 3.41
CNC(=O)c1cnc(/C=C/c2cc(OC)cc(OC)c2)s1 | 17.6
COc1ccc(NC(C)=O)c(N2CCN(C(C)=O)CC2)n1 | -0.156
CCS(=O)(=O)N(C)C1CCN(C(=O)c2cccc(Cl)c2)CC1 | -4.92

Structure (SMILES) | cytotoxicity at 70.5 h [%]
Cc1csc(NC(=O)CN(C)CC2CCCN2c2cccnn2)n1 (configuration not stated) | 3.61
CCc1nc(CCNC(=O)NC2CC2)sc1C | 5.49
COC(=O)C1CCN(c2cncc(-n3nc(C)cc3C)n2)CC1 | 2.18
Cc1cc(CN2CCc3nn(C(C)C)c(=O)cc3C2)no1 | 5.97
COCc1nc2cc(NCc3ccncc3)ccc2o1 | 16.6
CC(CNC(=O)N1CCSCC1)Cc1cccs1 (configuration not stated) | 4.95
COCc1nc2cc(NCc3ccc(C)o3)ccc2o1 | 0.17
CC(C)CCN1CCN(Cc2nc(C3CC3)no2)CC1 | 20.6
CCN1CCC(CNCc2cc(OC)ccc2OC)C1 (configuration not stated) | 5.64
COCCN1CCN(C(C)C(=O)Nc2ccnn2C(C)C)CC1 (configuration not stated) | 1.69
CCc1nc(CCNC(=O)C2CCOC2)sc1C (configuration not stated) | -2.78
CC(CNC(=O)N1CCN(c2cnccn2)CC1)Cc1cccs1 (configuration not stated) | -4.18
Cc1cc(F)ccc1CN1CCCC2(C1)OCCO2 | -3.36
COc1ccc(CNCC2CC2)cc1F | -7.42
COc1cccc(CN(C)C(=O)CN2CCN(CCO)CC2)c1 | -7.48
COc1cccc(CN(C)C(=O)CN2CCN(c3nccn3C)CC2)c1 | -6.12
CC1CCN(C(CNC(=O)CCn2cccn2)c2cccs2)CC1 (configuration not stated) | -1.29
Cc1ccc(CNCc2nnc3n2CCCC3C(F)(F)F)o1 (configuration not stated) | 6.51
O=c1oc(-c2cccs2)nn1CC(O)c1ccc(F)cc1 (configuration not stated) | -11.2
NC(=O)C1CCCN1Cc1cccc(NC(=O)c2ccsc2)c1 (configuration not stated) | -11.3
CCOc1ncccc1CNC(=O)N1CCCC1c1cc(C)no1 (configuration not stated) | -12.6
CCSCCC(=O)Nc1ncn(Cc2cccnc2)n1 | -9.89
CCC(C)NC(=O)c1ccccc1-n1cnnn1 (configuration not stated) | -11.4
COc1ccc(-n2cnnc2SCCC#N)cn1 | -4.7

Structure (SMILES) | cytotoxicity at 70.5 h [%]
CN(C)CCCNC(=O)c1cc(Br)c2c(c1)OCCO2 | -7.25
CCc1nc(CNC(=O)Nc2ccc(C(=O)NC)cc2C)cs1 | -22.3
O=C(NC1(c2nnn(CCO)n2)CCCC1)c1ccccc1 | -1.16
CN(CCNC(=O)N1CCN(Cc2ccon2)CC1)C1CCCC1 | -1.48
CC(NC(=O)NCCCn1cccn1)c1cccnc1 (configuration not stated) | 18.1
COC(=O)CCN1CCCC1c1cccc2c1OCCO2 (configuration not stated) | -6.05
Cc1cc(CN(C)C2CCCN(c3cccnn3)C2)on1 (configuration not stated) | 28.9
CC(C)N(C)CC(=O)NC1CCc2nccn2C1 (configuration not stated) | 17.3
COCCc1noc(CN(C)C2CCCN(c3ccc(C)nn3)C2)n1 (configuration not stated) | 24.4
Cc1cnn(C2CN(CC(O)c3ccc(F)cc3)C2)c1 (configuration not stated) | -5.26
COc1cccc(S(=O)(=O)CCN2CCCCC2)c1 | -15.7
O=C(NCCc1csc(N2CCCC2)n1)N(C1CCCC1)C1CC1 | -2.69
Cc1ccc2ncnc(N3CCOCC3c3c(C)nn(C)c3C)c2c1 (configuration not stated) | -11.7
CCN(CC1CN(Cc2ncc[nH]2)CCO1)c1cccnn1 (configuration not stated) | -6.7
O=C(C1CC(=O)N(c2ccccc2Br)C1)N1CCC2(CC1)OCCO2 (configuration not stated) | -6.47
CCOC1CCN(C(=O)c2c(Cl)c3ccccc3n2C)CC1 | -7.26
Cc1ccsc1CNC(=O)NC1CCCc2c1cnn2CCO (configuration not stated) | -6.7
CCS(=O)(=O)c1ccc(N2CCC(NC(=O)c3cnn(C)c3)CC2)cc1 | -4.33
O=C(NCC(F)(F)F)NC1CCCc2c1cnn2CCO (configuration not stated) | -8.96
CC(C)Oc1ccc(CSc2nnc(CN3CCCC3=O)o2)cc1 | -7.62
CC(O)CN1CCN(C(=O)c2cnn(-c3ccccc3F)c2)CC1 (configuration not stated) | -6.92
Cc1nn(CCO)c(C)c1CNC1CCC(C)(C)c2ccccc21 (configuration not stated) | -5.72
CCCC(NC(=O)c1cc(C)n(C2CC2)c1C)c1nnn[nH]1 (configuration not stated) | -0.607
c1csc(COC[C@H]2CCC[C@]23CN(Cc2ccoc2)CCO3)n1 | -9.63

Structure (SMILES) | cytotoxicity at 70.5 h [%]
COCCO[C@H]1CCN(C(=O)c2ccsc2)[C@H]1Cc1cnn(C)c1 | -11.9
O=C(CC1CC1)N1CCC2(COCc3cnc(N4CCOCC4)nc32)C1 (configuration not stated) | -6.88
O=C(c1cccs1)N1CCC2(CC1)CN(c1ccsc1)C(=O)CO2 | -8.69
O=C(CCO)N1CC[C@@H]2CN(C(=O)c3ccco3)CCO[C@@H]2C1 | -4.78
CN(C)[C@@H]1CCN(C(=O)c2ccccn2)[C@H]1Cc1cnn(C)c1 | -5.7
c1cc(CN2CC[C@H]3O[C@@H](COCC4CCOCC4)CC[C@H]32)ccn1 | 23.2
Cn1nnc2c1CCN(S(C)(=O)=O)C2COCc1ccccc1 (configuration not stated) | 13.6
Cc1cc(S(=O)(=O)NC(C)(C)CN)c(F)cc1F | -9.88
CN(C)C(=O)CN1CCC2(COCc3cnc(N4CCOCC4)nc32)C1 (configuration not stated) | 19.8
CN1C(=O)C[C@H]2[C@H]1CCN2Cc1cccc(C#N)c1 | -11.7
CN(C)CCNC(=O)c1cc(-c2cnc(N3CCOCC3)nc2)cn1C | -8.38
Cc1noc(C)c1CN1C[C@@H]2COC[C@H](C(=O)N3CCOCC3)[C@@H]2C1 | -8.43
c1csc(CN2CCn3c(Cn4cncn4)cnc3C2)c1 | 27.5
Cn1nnc2c1CCN(CC1CC1)C2COCC1CC1 (configuration not stated) | -12.8
COC[C@H]1CC[C@@H]2[C@@H](CCN2Cc2ccccn2)O1 | 22.1
O=C(c1cnc2n1CCN(Cc1ccccc1)C2)N1CCCC1 | -9.37
N#Cc1cccc(CN2CC[C@@H]3[C@@H]2CC(=O)N3CCN2CCCC2)c1 | -9.81
O=C(c1cccnc1)N1CCN2C[C@H](OCc3ccccc3)C[C@H]2C1 | -5.95
O=C(c1ccnnc1)N1CCN2C[C@H](OCc3cccnc3)C[C@H]2C1 | -8.22
CN(C)CCN1CCc2c(nnn2C)C1COCc1ccccc1 (configuration not stated) | 10.5
Cc1cccc(CN2CCOC3(COCCN(CCN(C)C)C3)C2)n1 (configuration not stated) | -3.04
